Experimental data as given in patent US20230257396A1, “MACROCYCLES AND THEIR USE” (BLOSSOMHILL THERAPEUTICS, INC., priority 2020, published 2023).

What was measured:
Assay in all cases: KINOMEscan kinase binding assay (Eurofins/DiscoveRx), % Ctrl
kinases [1] = conditions: 1 μM
Experimental: (§1) Kinase binding assays were performed at Eurofins/DiscoveRx using the general KINOMEscan Protocol (Fabian, M. A. et al., “A small molecule-kinase interaction map for clinical kinase inhibitors,” Nat. Biotechnol. 2005, 23(3):329-36). For most assays, kinase-tagged T7 phage strains were prepared in an E. coli host derived from the BL21 strain. E. coli were grown to log-phase and infected with T7 phage and incubated with shaking at 32° C. until lysis. The lysates were centrifuged and filtered to remove cell debris. The remaining kinases were produced in HEK-293 cells and subsequently tagged with DNA for qPCR detection. Streptavidin-coated magnetic beads were treated with biotinylated small molecule ligands for 30 minutes at room temperature to generate affinity resins for kinase assays. The liganded beads were blocked with excess biotin and washed with blocking buffer (SeaBlock (Pierce), 1% BSA, 0.05% Tween 20, 1 mM DTT) to remove unbound ligand and to reduce nonspecific binding. Binding reactions were assembled by combining kinases, liganded affinity beads, and test compounds in 1×binding buffer (20% SeaBlock, 0.17×PBS, 0.05% Tween 20, 6 mM DTT). All reactions were performed in polystyrene 96-well plates in a final volume of 0.135 mL. The assay plates were incubated at room temperature with shaking for 1 hour and the affinity beads were washed with washbuffer (1×PBS, 0.05% Tween 20). The beads were then re-suspended in elution buffer (1× PBS, 0.05% Tween 20, 0.5 μM non-biotinylated affinity ligand) and incubated at room temperature with shaking for 30 minutes. The kinase concentration in the eluates was measured by qPCR. Results for compounds tested in this assay at a given concentration are reported as “% Ctrl”, where lower numbers indicate stronger binding in the matrix.
(§2) (test compound signal-positive control signal)/(negative control signal-positive control signal) X100

kinases [2] = target: T1, kinases (Homo sapiens, UniProt P00533, L861Q); conditions: 1 μM; EGFR(L861Q)
T1 construct: purchased Eurofins/DiscoveRx; host or cells: E. coli BL21-derived host (T7 phage display) for most kinases; HEK-293 for the rest
Experimental: as §1, §2

kinases [3] = target: T2, kinases (Homo sapiens, UniProt P00533, DEL746-750); conditions: 1 μM; EGFR(E746-A750del)
T2 construct: purchased Eurofins/DiscoveRx; host or cells: E. coli BL21-derived host (T7 phage display) for most kinases; HEK-293 for the rest
Experimental: as §1, §2

kinases [4] = target: T3, kinases (Homo sapiens, UniProt P10721, A829P); conditions: 1 μM; KIT(A829P)
T3 construct: purchased Eurofins/DiscoveRx; host or cells: E. coli BL21-derived host (T7 phage display) for most kinases; HEK-293 for the rest
Experimental: as §1, §2

kinases [5] = target: T4, kinases (Homo sapiens, UniProt P00533); conditions: 1 μM; EGFR
T4 construct: purchased Eurofins/DiscoveRx; host or cells: E. coli BL21-derived host (T7 phage display) for most kinases; HEK-293 for the rest
Experimental: as §1, §2

kinases [6] = target: T5, kinases (Homo sapiens, UniProt P36888, K663Q); conditions: 1 μM; FLT3(K663Q)
T5 construct: purchased Eurofins/DiscoveRx; host or cells: E. coli BL21-derived host (T7 phage display) for most kinases; HEK-293 for the rest
T5 sequence (P36888 27-993 K663Q): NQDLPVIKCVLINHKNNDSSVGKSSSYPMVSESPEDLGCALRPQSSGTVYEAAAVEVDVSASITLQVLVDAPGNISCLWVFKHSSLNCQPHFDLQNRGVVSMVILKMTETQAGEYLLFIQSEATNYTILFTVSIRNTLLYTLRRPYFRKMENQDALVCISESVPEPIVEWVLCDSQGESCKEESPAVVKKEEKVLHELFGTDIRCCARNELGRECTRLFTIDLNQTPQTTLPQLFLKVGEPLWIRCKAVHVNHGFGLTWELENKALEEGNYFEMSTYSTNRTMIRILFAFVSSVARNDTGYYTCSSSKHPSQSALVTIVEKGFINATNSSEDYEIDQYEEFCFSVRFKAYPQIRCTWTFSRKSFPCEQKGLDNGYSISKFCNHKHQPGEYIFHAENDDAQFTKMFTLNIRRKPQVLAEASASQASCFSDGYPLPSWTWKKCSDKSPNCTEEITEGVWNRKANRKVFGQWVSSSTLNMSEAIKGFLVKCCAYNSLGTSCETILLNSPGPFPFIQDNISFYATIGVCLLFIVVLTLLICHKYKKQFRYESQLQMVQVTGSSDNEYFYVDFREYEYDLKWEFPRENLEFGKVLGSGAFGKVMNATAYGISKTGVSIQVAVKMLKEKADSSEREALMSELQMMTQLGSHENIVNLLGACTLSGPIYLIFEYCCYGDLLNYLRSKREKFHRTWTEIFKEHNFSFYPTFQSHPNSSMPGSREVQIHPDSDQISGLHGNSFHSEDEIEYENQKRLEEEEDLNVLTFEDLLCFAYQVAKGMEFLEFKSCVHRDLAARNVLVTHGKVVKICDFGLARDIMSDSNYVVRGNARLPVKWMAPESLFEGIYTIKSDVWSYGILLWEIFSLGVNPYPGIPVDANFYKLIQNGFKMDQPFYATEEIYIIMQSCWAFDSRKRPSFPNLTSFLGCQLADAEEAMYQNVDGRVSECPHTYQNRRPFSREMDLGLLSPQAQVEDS
Experimental: as §1, §2

kinases [7] = target: T6, kinases (Homo sapiens, UniProt P07949); conditions: 1 μM; RET
T6 construct: purchased Eurofins/DiscoveRx; host or cells: E. coli BL21-derived host (T7 phage display) for most kinases; HEK-293 for the rest
Experimental: as §1, §2

kinases [8] = target: T7, kinases (Homo sapiens, UniProt P10721, D816H); conditions: 1 μM; KIT(D816H)
T7 construct: purchased Eurofins/DiscoveRx; host or cells: E. coli BL21-derived host (T7 phage display) for most kinases; HEK-293 for the rest
Experimental: as §1, §2

kinases [9] = target: T8, kinases (Homo sapiens, UniProt P00533, T790M); conditions: 1 μM; EGFR(T790M)
T8 construct: purchased Eurofins/DiscoveRx; host or cells: E. coli BL21-derived host (T7 phage display) for most kinases; HEK-293 for the rest
Experimental: as §1, §2

kinases [10] = target: T9, kinases (Homo sapiens, UniProt P07949, V804L); conditions: 1 μM; RET(V804L)
T9 construct: purchased Eurofins/DiscoveRx; host or cells: E. coli BL21-derived host (T7 phage display) for most kinases; HEK-293 for the rest
Experimental: as §1, §2

kinases [11] = target: T10, kinases (Homo sapiens, UniProt P00519, M351T); conditions: 1 μM; ABL1(M351T)-phosphorylated
T10 construct: purchased Eurofins/DiscoveRx; host or cells: E. coli BL21-derived host (T7 phage display) for most kinases; HEK-293 for the rest
Experimental: as §1, §2

T9 sequence (P07949 29-1114 V804L): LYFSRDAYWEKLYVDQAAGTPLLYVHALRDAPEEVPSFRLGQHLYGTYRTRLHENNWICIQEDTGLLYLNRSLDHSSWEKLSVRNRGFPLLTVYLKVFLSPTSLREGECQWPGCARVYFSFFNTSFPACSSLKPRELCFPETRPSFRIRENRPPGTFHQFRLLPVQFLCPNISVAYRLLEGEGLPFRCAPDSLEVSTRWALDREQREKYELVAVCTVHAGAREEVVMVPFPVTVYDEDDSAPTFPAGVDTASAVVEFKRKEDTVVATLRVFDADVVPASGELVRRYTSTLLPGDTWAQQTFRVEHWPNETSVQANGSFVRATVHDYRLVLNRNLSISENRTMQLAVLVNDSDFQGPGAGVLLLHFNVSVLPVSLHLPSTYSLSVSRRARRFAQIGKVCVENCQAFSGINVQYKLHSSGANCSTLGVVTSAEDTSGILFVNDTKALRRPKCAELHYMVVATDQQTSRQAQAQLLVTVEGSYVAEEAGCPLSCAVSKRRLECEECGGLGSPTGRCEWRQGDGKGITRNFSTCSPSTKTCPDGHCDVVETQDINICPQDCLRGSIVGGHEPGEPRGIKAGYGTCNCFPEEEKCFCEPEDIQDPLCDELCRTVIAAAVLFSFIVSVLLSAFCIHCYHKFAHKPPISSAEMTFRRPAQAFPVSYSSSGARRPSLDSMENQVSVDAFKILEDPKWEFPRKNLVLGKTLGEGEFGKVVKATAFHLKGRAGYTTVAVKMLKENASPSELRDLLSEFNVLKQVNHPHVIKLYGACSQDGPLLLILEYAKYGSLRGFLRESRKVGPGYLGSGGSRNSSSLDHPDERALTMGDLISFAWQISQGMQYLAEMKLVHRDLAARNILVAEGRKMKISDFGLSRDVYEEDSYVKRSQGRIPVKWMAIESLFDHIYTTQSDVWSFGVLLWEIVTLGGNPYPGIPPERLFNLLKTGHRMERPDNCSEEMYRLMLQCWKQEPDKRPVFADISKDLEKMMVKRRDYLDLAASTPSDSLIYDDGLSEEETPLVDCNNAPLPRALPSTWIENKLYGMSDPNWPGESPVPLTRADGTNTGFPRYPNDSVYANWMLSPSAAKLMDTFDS
T3 sequence (P10721 26-976 A829P): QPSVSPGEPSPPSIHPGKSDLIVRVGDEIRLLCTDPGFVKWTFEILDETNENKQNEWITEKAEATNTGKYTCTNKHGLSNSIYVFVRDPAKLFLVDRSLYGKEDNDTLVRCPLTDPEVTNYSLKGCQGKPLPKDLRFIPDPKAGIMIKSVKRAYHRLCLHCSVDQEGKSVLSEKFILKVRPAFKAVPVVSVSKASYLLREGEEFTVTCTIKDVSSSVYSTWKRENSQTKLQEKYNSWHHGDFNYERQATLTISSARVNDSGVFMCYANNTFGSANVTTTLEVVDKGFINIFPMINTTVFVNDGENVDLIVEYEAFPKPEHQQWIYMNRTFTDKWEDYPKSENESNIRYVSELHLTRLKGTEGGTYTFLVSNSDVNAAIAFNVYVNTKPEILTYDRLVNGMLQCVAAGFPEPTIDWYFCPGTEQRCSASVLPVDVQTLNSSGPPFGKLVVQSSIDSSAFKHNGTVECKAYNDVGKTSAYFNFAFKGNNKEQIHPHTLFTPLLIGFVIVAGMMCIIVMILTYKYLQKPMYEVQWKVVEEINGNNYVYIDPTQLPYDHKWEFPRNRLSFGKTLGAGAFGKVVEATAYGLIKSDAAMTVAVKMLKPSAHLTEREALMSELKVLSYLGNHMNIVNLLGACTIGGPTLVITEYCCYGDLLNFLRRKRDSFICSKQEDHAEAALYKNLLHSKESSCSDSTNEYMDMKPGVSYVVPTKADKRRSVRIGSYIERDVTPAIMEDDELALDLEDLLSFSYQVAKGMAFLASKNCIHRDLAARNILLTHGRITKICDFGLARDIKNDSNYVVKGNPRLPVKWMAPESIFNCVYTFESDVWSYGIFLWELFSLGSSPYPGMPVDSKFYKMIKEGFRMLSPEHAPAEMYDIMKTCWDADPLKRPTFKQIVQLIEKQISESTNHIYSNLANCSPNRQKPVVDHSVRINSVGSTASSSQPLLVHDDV
T6 sequence (P07949 29-1114): as the sequence (P07949 29-1114 V804L) above, with L776V counted along it
T7 sequence (P10721 26-976 D816H): as the sequence (P10721 26-976 A829P) above, with D791H, P804A counted along it

% Ctrl, EGFR(L747-E749del, A750P) (kinases [1])	% Ctrl, EGFR(L747-S752del, P753S) (kinases [1])	% Ctrl, EGFR(L747-T751del, Sins) (kinases [1])	% Ctrl, FLT3(ITD) (kinases [1])	% Ctrl, FLT3(ITD, D835V) (kinases [1])	% Ctrl, FLT3(ITD, F691L) (kinases [1])	% Ctrl, EGFR(L861Q) (kinases [2])	% Ctrl, EGFR(E746-A750del) (kinases [3])	% Ctrl, KIT(A829P) (kinases [4])	% Ctrl, EGFR (kinases [5])	% Ctrl, FLT3(K663Q) (kinases [6])	% Ctrl, RET (kinases [7])	% Ctrl, KIT(D816H) (kinases [8])	% Ctrl, EGFR(T790M) (kinases [9])	% Ctrl, RET(V804L) (kinases [10])	% Ctrl, ABL1(M351T)-phosphorylated (kinases [11])	SMILES
100 % Ctrl	100 % Ctrl	100 % Ctrl	26 % Ctrl	2.8 % Ctrl	5.6 % Ctrl	97 % Ctrl	100 % Ctrl	54 % Ctrl	99 % Ctrl	77 % Ctrl	24 % Ctrl	43 % Ctrl	98 % Ctrl	58 % Ctrl	58 % Ctrl	Cc1cc2c([nH]1)/C=C1\C(=O)Nc3cc(Cl)c(cc31)OCCO[C@@H](C(=O)NC1CNC1)CN(C)C2=O [Ex. 133, [7R,16a(17)Z]-N-(azetidin-3-yl)-19-chloro-2,5-dimethyl-4,16-dioxo-4,5,6,7,9,10,15,16-octahydro-1H-12,14-(ethanediylidene)dipyrrolo[3,2-i:3′,4′-l][1,4,7]dioxazacyclopentadecine-7-carboxamide]
83 % Ctrl	87 % Ctrl	99 % Ctrl	35 % Ctrl	3.2 % Ctrl	6.1 % Ctrl	95 % Ctrl	89 % Ctrl	69 % Ctrl	96 % Ctrl	73 % Ctrl	27 % Ctrl	56 % Ctrl	92 % Ctrl	55 % Ctrl	25 % Ctrl	Cc1cc2c([nH]1)/C=C1\C(=O)Nc3cc(Cl)c(cc31)OCCO[C@@H](C(=O)NC1CCNCC1)CN(C)C2=O [Ex. 134, [7R,16a(17)Z]-19-chloro-2,5-dimethyl-4,16-dioxo-N-(piperidin-4-yl)-4,5,6,7,9,10,15,16-octahydro-1H-12,14-(ethaneidylidene)dipyrrolo[3,2-i:3′,4′-l][1,4,7]dioxazacyclopentadecine-7-carboxamide]
82 % Ctrl	80 % Ctrl	98 % Ctrl	52 % Ctrl	11 % Ctrl	25 % Ctrl	86 % Ctrl	99 % Ctrl	75 % Ctrl	100 % Ctrl	66 % Ctrl	33 % Ctrl	80 % Ctrl	94 % Ctrl	60 % Ctrl	48 % Ctrl	CNC(=O)[C@H]1CN(C)C(=O)c2cc(C)[nH]c2/C=C2\C(=O)Nc3cc(Cl)c(cc32)OCCO1 [Ex. 135, [7R,16a(17)Z]-19-chloro-N,2,5-trimethyl-4,16-dioxo-4,5,6,7,9,10,15,16-octahydro-1H-12,14-(ethanediylidene)dipyrrolo[3,2-i:3′,4′-l][1,4,7]dioxazacyclopentadecine-7-carboxamide]
80 % Ctrl	82 % Ctrl	94 % Ctrl	23 % Ctrl	2.8 % Ctrl	5.7 % Ctrl	95 % Ctrl	76 % Ctrl	64 % Ctrl	98 % Ctrl	64 % Ctrl	23 % Ctrl	48 % Ctrl	96 % Ctrl	50 % Ctrl	17 % Ctrl	Cc1cc2c([nH]1)/C=C1\C(=O)Nc3cc(Cl)c(cc31)OCCO[C@@H](C(=O)N[C@@H]1CCNC1)CN(C)C2=O [Ex. 136, [7R,16a(17)Z]-19-chloro-2,5-dimethyl-4,16-dioxo-N-[(3R)-pyrrolidin-3-yl]-4,5,6,7,9,10,15,16-octahydro-1H-12,14-(ethanediylidene)dipyrrolo[3,2-i:3′,4′-l][1,4,7]dioxazacyclopentadecine-7-carboxamide]
100 % Ctrl	100 % Ctrl	100 % Ctrl	44 % Ctrl	9.1 % Ctrl	29 % Ctrl	100 % Ctrl	98 % Ctrl	75 % Ctrl	100 % Ctrl	69 % Ctrl	8 % Ctrl	74 % Ctrl	94 % Ctrl	37 % Ctrl	51 % Ctrl	Cc1cc2c([nH]1)/C=C1\C(=O)Nc3cc(Cl)c(cc31)OCCO[C@@H](C(=O)N(C)C)CN(C)C2=O [Ex. 137, [7R,16a(17)Z]-19-chloro-N,N,2,5-tetramethyl-4,16-dioxo-4,5,6,7,9,10,15,16-octahydro-1H-12,14-(ethanediylidene)dipyrrolo[3,2-i:3′,4′-l][1,4,7]dioxazacyclopentadecine-7-carboxamide]
